Results: patent publication US20110262497A1, “NOVEL EZETIMIBE FORMULATIONS” (LEK Pharmaceuticals D.D., priority 2008, published 2011)

Assay: solubility of ezetimibe in water
Format: physicochemical

solubility: < 10 µg/mL
SMILES: O=C1[C@H](CC[C@H](O)c2ccc(F)cc2)[C@@H](c2ccc(O)cc2)N1c1ccc(F)cc1 [ezetimibe, 1-(4-fluorophenyl)-3(R)-[3-(4-fluorophenyl)-3(S)-hydroxypropyl]-4(S)-(4-hydroxyphenyl)-2-azetidinone]
